Experimental data as given in US8088731B2, “Use of GLP-1 compound for treatment of critically ill patients” (Novo Nordisk A/S, priority 2002, dated 2012).

Tests used:
[1] = tested on: subjects with type 2 diabetes; assay: 12 week randomised, double-blind, dose-response, placebo controlled and open label glimepiride study of glucose lowering effect; assay type: in vivo, human; conditions: 12 weeks
Description: The dose of glimepiride was adjusted during the first 4 weeks based on glycaemic control with a treatment target of fasting serum glucose <7 mM, with a dose not exceeding 4 mg/day. Results

[2] = tested on: subjects with type 2 diabetes; assay: Graded glucose infusion crossover study of beta cell sensitivity to glucose after a single dose; assay type: in vivo, human; conditions: single dose 7.5 μg/kg
Description: Using a graded glucose infusion protocol with plasma glucose levels matched over the range of 5 to 12 mmol/L beta cell sensitivity was assessed. Insulin secretion rates (ISR) were estimated by deconvolution of circulating C-peptide concentrations. Findings were compared to responses of 10 healthy, nondiabetic volunteers to the same glucose infusion protocol.

| subjects that reported any hypoglycaemic episode ([1]; two highest dose groups (0.60 and 0.75 mg)) | hypoglycemic events ([2]; type 2 diabetes subjects) | subjects that reported any hypoglycaemic episode ([1]; glimepiride group) | Compound | mean serum fasting glucose decrease compared with placebo ([1]; 0.60 mg once daily s.c., p<0.0001) | mean decrease compared to placebo in HbA1c ([1]; 0.60 mg once daily s.c., p=0.0002) | mean decrease compared to placebo in HbA1c ([1]; 0.75 mg once daily s.c., p<0.0001) | mean serum fasting glucose decrease compared with placebo ([1]; 0.75 mg once daily s.c., p=0.0003) | C-peptide levels compared to placebo ([2]; type 2 diabetes subjects) | insulin levels compared to placebo ([2]; type 2 diabetes subjects) | slope of ISR vs. plasma glucose ([2]; type 2 diabetes subjects, graded glucose infusion, p<0.014 vs placebo) | insulin secretion at low glucose levels ([2]; versus non-diabetic controls) | reduction compared to placebo on FSG ([1]; glimepiride p.o. once daily, open-label, titrated, not exceeding 4 mg/day) | reduction compared to placebo on HbA1c ([1]; glimepiride p.o. once daily, open-label, titrated, not exceeding 4 mg/day, p=0.0001) |
| --- | --- | --- | --- | --- | --- | --- | --- | --- | --- | --- | --- | --- | --- |
| 7% | No hypoglycemic events occurred | – | CCCCCCCCCCCCCCCC(=O)N[C@@H](CCC(=O)NCCCC[C@H](NC(=O)[C@H](C)NC(=O)[C@H](C)NC(=O)[C@H](CCC(N)=O)NC(=O)CNC(=O)[C@H](CCC(=O)O)NC(=O)[C@H](CC(C)C)NC(=O)[C@H](Cc1ccc(O)cc1)NC(=O)[C@H](CO)NC(=O)[C@H](CO)NC(=O)[C@@H](NC(=O)[C@H](CC(=O)O)NC(=O)[C@H](CO)NC(=O)[C@@H](NC(=O)[C@H](Cc1ccccc1)NC(=O)[C@@H](NC(=O)CNC(=O)[C@H](CCC(=O)O)NC(=O)[C@H](C)NC(=O)[C@@H](N)Cc1cnc[nH]1)[C@@H](C)O)[C@@H](C)O)C(C)C)C(=O)N[C@@H](CCC(=O)O)C(=O)N[C@@H](Cc1ccccc1)C(=O)N[C@H](C(=O)N[C@@H](C)C(=O)N[C@@H](Cc1c[nH]c2ccccc12)C(=O)N[C@@H](CC(C)C)C(=O)N[C@H](C(=O)N[C@@H](CCCNC(=N)N)C(=O)NCC(=O)N[C@@H](CCCNC(=N)N)C(=O)NCC(=O)O)C(C)C)[C@@H](C)CC)C(=O)O [NN2211, Arg^34, Lys^26(N^ε-(γ-Glu(N^α-hexadecanoyl)))-GLP-1(7-37)] | 2.14 mmol/L | 0.70 percentage points | 0.75 percentage points | 1.82 mmol/L | increased | increased | 1.26±0.36 pmol*L/(min*mmol*kg) | comparable to the non-diabetic controls | – | – |
| – | – | 31% | CCC1=C(C)CN(C(=O)NCCc2ccc(S(=O)(=O)NC(=O)N[C@H]3CC[C@H](C)CC3)cc2)C1=O [glimepiride, reference compound] | – | – | – | – | – | – | – | – | -2.6 mM | 0.74% |
